System: COSY
Assay: Enzymatic activity of COSY: in vitro assay combined with tobacco 4CL and CoA
Format: biochemical, Arabidopsis thaliana
Settings: 4CL and COSY added simultaneously, CoA present; purified COSY expressed in E. coli
From the text: FIG. 7: Enzymatic activity of COSY. COSY and 4CL were supplemented with either 2-hydroxy-p-coumaric acid (2OHpCA), 6-hydroxycaffeic acid (6OHCA) or 6-hydroxyferulic acid (6OHFA). Umbelliferone, esculetin and scopoletin were formed, respectively, only in the presence of CoA and the enzymes 4CL and COSY. The y-axis represents the normalized abundance, error bars show the standard deviation (n=4).
Although the idea of spontaneous isomerization and lactonisation in the biosynthesis of coumarins is now widely accepted in literature (Matsumoto S. et al., 2012; Yang et al., 2015) our cosy mutant data in Example 1 clearly contradict this. When we took a closer examination at the lactonisation reaction of the coumarin core structures we investigated the possible resemblance to an esterification-type reaction mediated by BAHD acyltransferases. BAHD family members utilize activated CoA-thioesters as acyl-donors and an alcohol or amine as the acyl acceptor to form an ester or amide, respectively. We therefore hypothesized that COUMARIN SYNTHASE (COSY) could be a BAHD acyltransferase responsible for the isomerization and lactonization of ortho-hydroxy-cinnamoyl CoA thioesters into coumarins. To verify the catalytic activity of COSY in vitro, COSY was expressed in Escherichia coli and the corresponding COSY protein purified. Potential substrates were chosen based on the phenolic profiling of the cosy mutants. […] Because neither 2′-hydroxy-p-coumaroyl-CoA, 6′-caffeoyl-CoA nor 6′-hydroxyferuloyl-CoA were commercially available, the corresponding acids were synthesized and the enzymatic assays were performed in combination with a tobacco 4-COUMARATE:CoA LIGASE (4CL) to catalyze the formation of the corresponding CoA thioesters in situ (Beuerle & Pichersky, 2002). In the samples where 4CL and COSY were added simultaneously, seemingly 100% 2-hydroxy-p-coumaric acid and 6-hydroxyferulic acid were converted into the corresponding coumarins, i.e., umbelliferone and scopoletin. […]

| Structure (SMILES) | substrate converted into the corresponding coumarin (umbelliferone, scopoletin, esculetin) |
| --- | --- |
| O=C(O)/C=C/c1ccc(O)cc1O [2-hydroxy-p-coumaric acid] | ~100% |
| O=C(O)/C=C/c1cc(O)c(O)cc1O [6-hydroxycaffeic acid] | About 50% |
| COc1cc(/C=C/C(=O)O)c(O)cc1O [6-hydroxyferulic acid] | ~100% |

Reference: patent US20190233836A1, “MEANS AND METHODS TO INCREASE COUMARIN PRODUCTION” (VIB VZW, priority 2016, published 2019)
